The values below come from paper PMC6801739, “Antitumor Activity of a Novel Tyrosine Kinase Inhibitor AIU2001 Due to Abrogation of the DNA Damage Repair in Non-Small Cell Lung Cancer Cells” (International Journal of Molecular Sciences, 2019).

One test deals with T1, TrkA (Homo sapiens, UniProt P04629).
T1 construct: purchased Eurofins Pharma Discovery (KinaseProfiler); IC50 values by Reaction Biology Corp
The test is described as follows: Kinase profiling at 10 μM (Eurofins). Type of test: biochemical. The settings on record: read-out: Inhibitory activity.

For the next test, the target named is T2, ZAP-70 (Homo sapiens, UniProt P43403).
T2 construct: purchased Eurofins Pharma Discovery (KinaseProfiler); IC50 values by Reaction Biology Corp
T2 sequence (P43403 whole entry): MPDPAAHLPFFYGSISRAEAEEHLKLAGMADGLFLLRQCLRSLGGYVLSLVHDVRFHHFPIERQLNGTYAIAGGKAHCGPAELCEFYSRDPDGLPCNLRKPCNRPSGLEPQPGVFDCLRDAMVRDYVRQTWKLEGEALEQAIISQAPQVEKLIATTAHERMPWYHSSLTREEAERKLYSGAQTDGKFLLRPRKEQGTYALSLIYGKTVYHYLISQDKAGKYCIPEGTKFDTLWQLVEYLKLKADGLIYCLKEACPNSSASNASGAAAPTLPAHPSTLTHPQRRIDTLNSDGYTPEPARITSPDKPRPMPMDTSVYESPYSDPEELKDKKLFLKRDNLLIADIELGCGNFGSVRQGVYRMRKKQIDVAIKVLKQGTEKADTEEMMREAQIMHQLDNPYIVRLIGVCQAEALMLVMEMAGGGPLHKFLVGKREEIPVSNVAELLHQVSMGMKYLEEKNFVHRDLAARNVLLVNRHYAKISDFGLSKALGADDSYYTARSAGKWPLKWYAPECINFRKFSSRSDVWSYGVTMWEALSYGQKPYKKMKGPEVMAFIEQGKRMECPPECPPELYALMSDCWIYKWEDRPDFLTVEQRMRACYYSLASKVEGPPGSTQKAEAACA
The test is described as follows: Kinase profiling at 10 μM (Eurofins). It is filed as biochemical. The settings on record: read-out: Inhibitory activity.

T1 sequence (P04629 33-796): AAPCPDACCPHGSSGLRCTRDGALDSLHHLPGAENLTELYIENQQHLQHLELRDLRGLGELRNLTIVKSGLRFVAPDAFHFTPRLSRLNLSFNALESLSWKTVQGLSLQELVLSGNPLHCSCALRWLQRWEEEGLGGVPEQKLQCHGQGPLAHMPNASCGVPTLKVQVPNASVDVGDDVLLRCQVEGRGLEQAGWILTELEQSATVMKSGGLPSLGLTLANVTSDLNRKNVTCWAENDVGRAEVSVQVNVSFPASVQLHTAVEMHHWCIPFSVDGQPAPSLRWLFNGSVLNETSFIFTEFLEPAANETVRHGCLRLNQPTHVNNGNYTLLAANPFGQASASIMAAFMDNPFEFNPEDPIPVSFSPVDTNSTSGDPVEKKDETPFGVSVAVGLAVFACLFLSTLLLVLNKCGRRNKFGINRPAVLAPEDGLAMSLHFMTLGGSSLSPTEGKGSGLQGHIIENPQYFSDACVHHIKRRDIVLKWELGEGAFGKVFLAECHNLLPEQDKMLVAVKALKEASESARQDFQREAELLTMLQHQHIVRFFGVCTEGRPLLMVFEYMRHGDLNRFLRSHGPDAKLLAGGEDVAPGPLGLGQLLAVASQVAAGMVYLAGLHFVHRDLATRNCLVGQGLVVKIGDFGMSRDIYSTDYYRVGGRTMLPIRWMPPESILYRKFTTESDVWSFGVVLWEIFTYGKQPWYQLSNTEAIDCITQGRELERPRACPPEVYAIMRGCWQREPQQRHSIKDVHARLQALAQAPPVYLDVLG

Regarding `Brc1ccc(-c2cnc(Nc3cccc4ccccc34)o2)cc1` [AIU2001, 5-(4-bromophenyl)-N-(naphthalen-1-yl) oxazol-2-amine], the inhibition at 10 µM was determined as 40% at TrkA and 0% at ZAP-70.
